Reference: article PMC7932521, “2-aminobenzimidazoles for leishmaniasis: From initial hit discovery to in vivo profiling” (PLoS Neglected Tropical Diseases, 2021)

Assays:
[1] = MRC-5 cytotoxicity; assay type: cell-based; settings: human, MRC-5 cells; S1 Data
[2] = test system: MRC-5 cells; assay: MRC-5 cytotoxicity; assay type: cell-based; settings: for IC50: Homo sapiens, MRC5, panel sheet, average, read-out: IC-50 MRC-5 cells; for CC50: S1 Data
[3] = Human liver microsomal stability; assay type: in vitro ADME; settings: liver microsomes, pH 7.4; human liver microsome; read-out: HLM Clint
Procedure: The metabolic stability of the compounds was evaluated in human (pool of 200 donors, XenoTech) and mouse liver microsomes (CD1 mouse, GIBCO). Test compounds were prepared at a concentration of 0.5 μM and incubated with 0.25 mg/mL liver microsomes at pH 7.4 and 37°C. The reaction was started by addition of NADPH at […]. Samples were taken at 0, 5, 10, 15, 20 and 30 minutes. The reaction was stopped by the addition of acetonitrile:methanol (1:1) containing an internal standard (tolbutamide at 50 nM). Compounds were quantified by liquid chromatography triple quadrupole mass spectrometry (LC-MS/MS). Peak area ratios (analyte/internal standard) were converted to % remaining using the area ratio at time 0 as 100%. Half-life (t1/2 = ln(2)/k) in minutes and intrinsic clearance (Clint = k x 1000/(0.25)) in μL/min/mg were calculated using a non-linear regression from % remaining versus incubation time. From this plot, the slope (k) was determined. The analysis conditions were: analytical column (Gemini C18, […], Phenomenex), electrospray ionization source (ESI) in positive and negative mode, mobile phase A (water + 0.1% formic acid) and B (acetonitrile + 0.1% formic acid), flow rate of 0.7 mL/min.

[4] = Plasma protein binding; assay type: in vitro ADME; settings: mouse, pH 7.4, % bound, read-out: Mouse PPB (converted)
Procedure: For plasma protein binding, pooled plasma was thawed in a water bath at 37°C and centrifuged at 4,000 rpm for 5 min to remove any clots. The pH value was measured and adjusted to 7.4, if necessary. RPMI medium (pH 7.4) supplemented with 10% fetal calf serum was used. Working solutions (400 μM) of test compounds were prepared by diluting appropriate volume of the stock solutions with DMSO. Working solutions (400 μM) were spiked into plasma to achieve 2 μM final concentrations as loading solutions. The concentration of organic solvent in the final solutions was 0.5% DMSO. The dialysis instrument was assembled following manufacturer’s instructions. Aliquots of loading solution were loaded in triplicate to the donor side of each dialysis well and dialyzed against an equal volume of dialysis buffer. The plate was shaken and incubated for 6 hours in a humidified incubator with 5% CO2 at 37°C. At the end of dialysis, aliquots of dialysate and retentate were removed into sample collection plates. Each sample was matched with an opposite blank buffer or plasma, with a ratio of matrix:dialysis buffer of 50:50 (v:v) in each well and participated with 500μL of stop solution (50% acetonitrile/methanol; internal standards—200 ng/mL tolbutamide, labetalol and 50 ng/mL metformin). All sample collection plates were rotated at 800 rpm for 5 min to mix samples and centrifuged at 20°C, 4000 rpm for 20 min. Aliquots of supernatant of all the samples were removed and injected into LC-MS/MS. Results were calculated as the percentage of remaining parent compound in plasma or medium after incubation.

[5] = test system: L. donovani MHOM/ NP/2003/ BPK282/0-cl4; assay: VL/CL panel, intracellular amastigotes; assay type: cell-based; settings: Leishmania donovani; average; read-out: IC-50 L. donovani MHOM/ NP/2003/ BPK282/0-cl4
Procedure: (§1) For the antileishmania in vitro assays, 3×10^4 PMM/well were seeded in 96-well plates. After 24h, 5×10^5 amastigotes/well were added and incubated for 2h at 37°C. Next, the compounds in 4-fold serial dilutions were added and the plates were further incubated for 5 days (37°C, 5% CO2). Parasite burdens were assessed using an inverted microscope after Giemsa staining. The results were expressed as percent reduction in parasite burdens compared to negative control wells (100% growth) and IC50 values were determined. Values represent the geometric mean of at least two independent experiments. Miltefosine was used as the positive control in all plates.

[6] = test system: L. donovani MHOM/ET/2007/LLM-1600; assay: VL/CL panel, intracellular amastigotes; assay type: cell-based; settings: Leishmania donovani; average; read-out: IC-50 L. donovani MHOM/ET/2007/LLM-1600
Procedure: as §1

[7] = test system: L. donovani MHOM/NP/03/BPK275/0-cl18; assay: VL/CL panel, intracellular amastigotes; assay type: cell-based; settings: Leishmania donovani; average; read-out: IC-50 L. donovani MHOM/NP/03/BPK275/0-cl18
Procedure: as §1

[8] = test system: L. guyanensis MHOM/PE/02/PER 054/0; assay: VL/CL panel, intracellular amastigotes; assay type: cell-based; settings: Leishmania guyanensis; average; read-out: IC-50 L. guyanensis MHOM/PE/02/PER 054/0
Procedure: as §1

[9] = test system: L. infantum LEM3323-cl4 MIL; assay: VL/CL panel, intracellular amastigotes; assay type: cell-based; settings: Leishmania infantum, read-out: IC-50 L. infantum LEM3323-cl4 MIL
Procedure: as §1

[10] = test system: L. infantum LEM3323-cl4 PMM; assay: VL/CL panel, intracellular amastigotes; assay type: cell-based; settings: Leishmania infantum, read-out: IC-50 L. infantum LEM3323-cl4 PMM
Procedure: as §1

[11] = test system: L. infantum MHOM/BR/2007/WC (L3015); assay: VL/CL panel, intracellular amastigotes; assay type: cell-based; settings: Leishmania infantum; average; read-out: IC-50 L. infantum MHOM/BR/2007/WC (L3015)
Procedure: as §1

[12] = test system: L. infantum MHOM/ES/2016/LLM-2346; assay: VL/CL panel, intracellular amastigotes; assay type: cell-based; settings: Leishmania infantum; average; read-out: IC-50 L. infantum MHOM/ES/2016/LLM-2346
Procedure: as §1

[13] = test system: L. infantum MHOM/FR/96/LEM3323-cl4; assay: VL/CL panel, intracellular amastigotes; assay type: cell-based; settings: Leishmania infantum; average; read-out: IC-50 L. infantum MHOM/FR/96/LEM3323-cl4
Procedure: as §1

[14] = test system: L. major MHOM/IL/81/Friedlin; assay: VL/CL panel, intracellular amastigotes; assay type: cell-based; settings: Leishmania major; average; read-out: IC-50 L. major MHOM/IL/81/Friedlin
Procedure: as §1

[15] = test system: L. major MHOM/SA/85/JISH118; assay: VL/CL panel, intracellular amastigotes; assay type: cell-based; settings: Leishmania major; average; read-out: IC-50 L. major MHOM/SA/85/JISH118
Procedure: as §1

[16] = test system: L. panamensis MHOM/PA/71/LS94; assay: VL/CL panel, intracellular amastigotes; assay type: cell-based; settings: Leishmania panamensis; average; read-out: IC-50 L. panamensis MHOM/PA/71/LS94
Procedure: as §1

[17] = test system: L. tropica MHOM/AF/2015/HTD7; assay: VL/CL panel, intracellular amastigotes; assay type: cell-based; settings: Leishmania tropica; average; read-out: IC-50 L. tropica MHOM/AF/2015/HTD7
Procedure: as §1

Row | SMILES | CC50 [1] | IC50 [2] | microsomal CLint at 0.5 μM [3] | fraction unbound at 6 h, 2 μM [4] | IC50 [5] | IC50 [6] | IC50 [7] | IC50 [8] | IC50 [9] | IC50 [10] | IC50 [11] | IC50 [12] | IC50 [13] | IC50 [14] | IC50 [15] | IC50 [16] | IC50 [17] | CC50 [2]
1 | Cn1nccc1C(=O)Nc1nc2ccc(C#N)cc2n1CC(C)(C)C [Compound 29, O=C(Nc1n(CC(C)(C)C)c(c2n1)cc(C#N)cc2)c3n(C)ncc3] | 14.9 µM | > 64 µM | 25 µL/min/mg | 0.029 | 0.3 µM | 4.04 µM | 1.02 µM | 0.55 µM | 2.16 µM | 1.62 µM | 2.68 µM | 3.17 µM | 2.81 µM | 1.71 µM | 8.64 µM | 0.63 µM | 2.85 µM | 
2 | Cn1nccc1C(=O)Nc1nc2ccc(C#N)cc2n1CC(F)(F)F [Compound 30, O=C(c1ccnn1C)Nc2nc(ccc(C#N)c3)c3n2CC(F)(F)F] | 12.8 µM |  | 17 µL/min/mg | 0.042 |  |  |  |  |  |  |  |  |  |  |  |  |  | 
3 | Cn1nc(C(F)(F)F)cc1C(=O)Nc1nc2ccc(C#N)cc2n1CC(F)(F)F [Compound 39, O=C(c1cc(C(F)(F)F)nn1C)Nc2nc(ccc(C#N)c3)c3n2CC(F)(F)F] | 7.87 µM | 14.7 µM | 20 µL/min/mg | 0.006 | 0.1 µM | 1.61 µM | 0.11 µM | 1.08 µM | 4.16 µM | 3.21 µM | 3.64 µM | 4.65 µM | 3.01 µM | 3.04 µM | 17 µM | 1.22 µM | 5.9 µM | 
4 | COc1ccc(C(=O)Nc2nc3ccc(C#N)cc3n2CC(F)(F)F)cn1 [Compound 43, O=C(c1ccc(OC)nc1)Nc2nc(ccc(C#N)c3)c3n2CC(F)(F)F] | > 64 µM |  |  |  |  |  |  |  |  |  |  |  |  |  |  |  |  | 
5 | N#Cc1ccc2nc(NC(=O)c3ccnc(C(F)(F)F)c3)n(CC(F)(F)F)c2c1 [Compound 44, O=C(c1ccnc(C(F)(F)F)c1)Nc2nc(ccc(C#N)c3)c3n2CC(F)(F)F] |  |  | 30 µL/min/mg | 0.008 |  |  |  |  |  |  |  |  |  |  |  |  |  | > 64 µM
6 | N#Cc1ccc2nc(NC(=O)c3ccc(C(F)(F)F)nc3)n(CC(F)(F)F)c2c1 [Compound 45, O=C(c1ccc(C(F)(F)F)nc1)Nc2nc(ccc(C#N)c3)c3n2CC(F)(F)F] |  |  |  |  |  |  |  |  |  |  |  |  |  |  |  |  |  | > 64 µM
